Results reported in patent EP4725941A1, “ARYLAMIDE DERIVATIVE HAVING ANTITUMOR ACTIVITY” (priority 2020, dated 2021).
Like-named read-outs stand apart in the source and are kept apart here.

Experiments:
MEK1 = target: T1, MEK1 (Homo sapiens, UniProt Q02750); test: MEK1-inhibiting activity, fluorescent polarization method (CRAF/MEK1/ERK2 cascade, IMAP); assay type: biochemical; settings: Table 3; read-out: MEK1 IC50
T1 construct: purchased Thermo Fisher Scientific Inc. (MEK1, CRAF); Carna Biosciences, Inc. (ERK2)
T1 sequence (Q02750 whole entry): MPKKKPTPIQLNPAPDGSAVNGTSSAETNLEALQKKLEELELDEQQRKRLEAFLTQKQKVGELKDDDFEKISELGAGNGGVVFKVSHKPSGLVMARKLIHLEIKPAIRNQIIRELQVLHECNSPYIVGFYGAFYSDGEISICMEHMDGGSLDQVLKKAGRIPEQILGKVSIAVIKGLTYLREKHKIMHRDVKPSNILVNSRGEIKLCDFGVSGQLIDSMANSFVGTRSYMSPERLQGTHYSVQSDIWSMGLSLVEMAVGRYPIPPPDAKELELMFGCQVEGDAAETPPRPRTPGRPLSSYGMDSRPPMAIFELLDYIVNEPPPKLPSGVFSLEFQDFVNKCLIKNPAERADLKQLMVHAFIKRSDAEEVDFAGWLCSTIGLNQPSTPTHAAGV
Description: The MEK1-inhibiting activity of the compounds listed in Table 3 below were evaluated by the fluorescent polarization method as described below.

Calu-6 = test: Cell proliferation-inhibiting activity (ATP in viable cells, CellTiter-Glo), Calu-6; assay type: cell-based, human; settings: read-out: Calu-6 IC50
NCI-H2122 = test: Cell proliferation-inhibiting activity (ATP in viable cells, CellTiter-Glo), NCI-H2122; assay type: cell-based, human; settings: read-out: NCI-H2122 IC50
[1] = Human liver microsome stability; assay type: in vitro ADME; settings: human liver microsomes, pH 7.4
BRAF = target: T2, BRAF (Homo sapiens, UniProt P15056); test: BRAF-inhibiting activity, time-resolved fluorescence-fluorescence resonance energy transfer assay; assay type: biochemical
T2 construct: purchased Eurofins Genomics KK; (BRAF); Thermo Fisher Scientific Inc. (MEK1)
T2 sequence (P15056 417-766 limits assumed): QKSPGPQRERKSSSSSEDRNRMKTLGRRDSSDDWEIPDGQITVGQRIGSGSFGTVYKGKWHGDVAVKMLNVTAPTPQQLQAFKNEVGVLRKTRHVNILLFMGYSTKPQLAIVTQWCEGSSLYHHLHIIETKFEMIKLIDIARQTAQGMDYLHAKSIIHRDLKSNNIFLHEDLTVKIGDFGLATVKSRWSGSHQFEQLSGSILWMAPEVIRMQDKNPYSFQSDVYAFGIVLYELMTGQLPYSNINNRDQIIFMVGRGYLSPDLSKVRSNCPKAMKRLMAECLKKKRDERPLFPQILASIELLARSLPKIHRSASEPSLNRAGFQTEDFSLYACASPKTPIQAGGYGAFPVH
Description: The BRAF-inhibiting activity of the compounds listed in Table 3 below was evaluated by the time-resolved fluorescence-fluorescence resonance energy transfer assay as described below.

A549 = test: Cell proliferation-inhibiting activity (ATP in viable cells, CellTiter-Glo), A549; assay type: cell-based, human; settings: A549, 96 h, read-out: A549 IC50
[2] = human lung cancer cells, 4 days
[3] = NCI-H2122, 96 h, human lung cancer cells, 4 days

SMILES	IC50 (MEK1)	IC50 (Calu-6; Homo sapiens, Calu-6, 96 h)	IC50 (NCI-H2122; Homo sapiens, NCI-H2122, 96 h)	microsomal CLint at 0.99 µM [1]	IC50 (BRAF; Table 3; read-out: BRAF IC50)	IC50 (A549; [2])	IC50 (NCI-H2122; [3])	IC50 (BRAF; read-out: BRAF IC50; Table 3)	IC50 (A549; Homo sapiens)	IC50 (Calu-6; [2])	IC50 (NCI-H2122; [2])	IC50 (Calu-6; Calu-6, 96 h, human lung cancer cells, 4 days)
CC1(NS(=O)(=O)Nc2nccc(Cc3cc(C(=O)NC4CC4)c(Nc4ccc(C5CC5)cc4F)c(F)c3F)c2F)CCC1 [Compound G-5]	751 nM	374 nM	57 nM	86 µL/min/mg	78 nM	–	–	–	–	–	–	–
CC1(NS(=O)(=O)Nc2nccc(Cc3cc(C(N)=O)c(Nc4ccc(C5CC5)cc4F)c(F)c3F)c2F)CCC1 [Compound A-46, 2-(4-Cyclopropyl-2-fluoroanilino)-3,4-difluoro-5-[[3-fluoro-2-[(1-methylcyclobutyl)sulfamoylamino]pyridin-4-yl]methyl]benzamide]	811 nM	367 nM	31 nM	23 µL/min/mg	30 nM	–	–	–	–	–	–	–
NC(=O)c1cc(Cc2ccnc(NS(=O)(=O)NCCO)c2F)c(F)c(F)c1Nc1ccc(I)cc1F [Compound B-9, 3,4-Difluoro-5-[[3-fluoro-2-(2-hydroxyethylsulfamoylamino)pyridin-4-yl]methyl]-2-(2-fluoro-4-iodoanilino)benzamide]	2 nM	–	–	11 µL/min/mg	–	10 nM	7 nM	4 nM	–	–	–	–
C#Cc1ccc(Nc2c(C(N)=O)cc(Cc3ccnc(NS(=O)(=O)NC)c3F)c(F)c2F)c(F)c1 [Compound A-26, 2-(4-Ethynyl-2-fluoroanilino)-3,4-difluoro-5-[[3-fluoro-2-(methylsulfamoylamino)pyridin-4-yl]methyl]benzamide]	5 nM	–	2 nM	13 µL/min/mg	9 nM	–	–	–	7 nM	–	–	–
CS(=O)(=O)Nc1cccc(Cc2cc(C(=O)NC3CC3)c(Nc3ccc(I)cc3F)c(F)c2F)c1F [Compound E-25, N-Cyclopropyl-3,4-difluoro-2-(2-fluoro-4-iodoanilino)-5-[[2-fluoro-3-(methanesulfonamide)phenyl]methyl]benzamide]	284 nM	–	–	–	11 nM	–	–	–	–	28 nM	7 nM	–
CCCS(=O)(=O)Nc1nccc(Cc2cc(C(N)=O)c(Nc3ccc(I)cc3F)c(F)c2F)c1F [Compound B-8]	47 nM	–	–	24 µL/min/mg	–	95 nM	14 nM	7 nM	–	–	–	–
CNS(=O)(=O)Nc1nccc(Cn2cc(C(N)=O)c(Nc3ccc(I)cc3F)c(C)c2=O)c1F [Compound P-1, 4-(2-Fluoro-4-iodoanilino)-1-[[3-fluoro-2-(methylsulfamoylamino)pyridin-4-yl]methyl]-5-methyl-6-oxopyridine-3-carboxamide]	2 nM	–	–	15 µL/min/mg	–	–	6 nM	–	–	–	–	22 nM
NC(=O)c1cc(Cc2cccc(NS(=O)(=O)NC[C@H]3CCCO3)c2F)c(F)c(F)c1Nc1ccc(I)cc1F [Compound D-3, 3,4-Difluoro-2-(2-fluoro-4-iodoanilino)-5-[[2-fluoro-3-[[(2R)-oxolan-2-yl]methylsulfamoylamino]phenyl]methyl]benzamide]	130 nM	–	–	68 µL/min/mg	–	26 nM	12 nM	1 nM	–	–	–	–
CNS(=O)(=O)Nc1cccc(Cc2cc(C(N)=O)c(Nc3ccc(I)cc3F)c(F)c2F)c1 [Compound F-1, 3,4-Difluoro-2-(2-fluoro-4-iodoanilino)-5-[[3-(methylsulfamoylamino)phenyl]methyl]benzamide]	246 nM	–	–	10 µL/min/mg	–	7 nM	3 nM	5 nM	–	–	–	–
CNS(=O)(=O)Nc1cccc(Cc2cc(C(N)=O)c(Nc3ccc(I)cc3F)c(F)c2F)n1 [Compound H-5, 3,4-Difluoro-2-(2-fluoro-4-iodoanilino)-5-[[6-(methylsulfamoylamino)pyridin-2-yl]methyl]benzamide]	115 nM	–	–	26 µL/min/mg	–	6 nM	4 nM	2 nM	–	–	–	–
COCCNS(=O)(=O)Nc1nccc(Cc2cc(C(=O)NOC(C)C)c(Nc3ccc(I)cc3F)c(F)c2F)c1F [Compound A-11, 3,4-Difluoro-2-(2-fluoro-4-iodoanilino)-5-[[3-fluoro-2-(2-methoxyethylsulfamoylamino)pyridin-4-yl]methyl]-N-propan-2-yloxybenzamide]	7 nM	–	–	128 µL/min/mg	–	1 nM	1 nM	9 nM	–	–	–	–
NC(=O)c1cc(Cc2ccnc(NS(=O)(=O)NCC3COC3)c2F)c(F)c(F)c1Nc1ccc(I)cc1F [Compound A-21, 3,4-difluoro-2-(2-fluoro-4-iodoanilino)-5-[[3-fluoro-2-(oxetan-3-ylmethylsulfamoylamino)pyridin-4-yl]methyl]benzamide]	5 nM	–	–	4 µL/min/mg	–	31 nM	14 nM	4 nM	–	–	–	–
COCCS(=O)(=O)Nc1cccc(Cc2cc(C(N)=O)c(Nc3ccc(I)cc3F)c(F)c2F)c1 [Compound F-3, 3,4-Difluoro-2-(2-fluoro-4-iodoanilino)-5-[[3-(2-methoxyethylsulfonylamino)phenyl]methyl]benzamide]	380 nM	–	–	28 µL/min/mg	–	8 nM	24 nM	5 nM	–	–	–	–
NC(=O)c1cc(Cc2ccnc(NS(=O)(=O)NC34CC(C3)C4)c2F)c(F)c(F)c1Nc1ccc(I)cc1F [Compound A-28, 5-[[2-(1-Bicyclo[1.1.1]pentanylsulfamoylamino)-3-fluoropyridin-4-yl]methyl]-3,4-difluoro-2-(2-fluoro-4-iodoanilino)benzamide]	13 nM	–	–	11 µL/min/mg	–	5 nM	2 nM	9 nM	–	–	–	–
COCCNS(=O)(=O)Nc1cc(Cc2cc(C(N)=O)c(Nc3ccc(I)cc3F)c(F)c2F)ccn1 [Compound C-2, 3,4-Difluoro-2-(2-fluoro-4-iodoanilino)-5-[[2-(2-methoxyethylsulfamoylamino)pyridin-4-yl]methyl]benzamide]	104 nM	–	–	17 µL/min/mg	–	16 nM	7 nM	2 nM	–	–	–	–
COCC(C)(C)NS(=O)(=O)Nc1cccc(Cc2cc(C(N)=O)c(Nc3ccc(I)cc3F)c(F)c2F)c1F [Compound D-2, 3,4-Difluoro-2-(2-fluoro-4-iodoanilino)-5-[[2-fluoro-3-[(1-methoxy-2-methylpropan-2-yl)sulfamoylamino]phenyl]methyl]benzamide]	242 nM	–	–	103 µL/min/mg	–	9 nM	5 nM	3 nM	–	–	–	–
CNS(=O)(=O)Nc1nccc(Cn2cc(C(N)=O)c(Nc3ccc(I)cc3F)c(F)c2=O)c1F [Compound N-1, 5-Fluoro-4-(2-fluoro-4-iodoanilino)-1-[[3-fluoro-2-(methylsulfamoylamino)pyridin-4-yl]methyl]-6-oxopyridine-3-carboxamide]	1 nM	–	–	8 µL/min/mg	–	20 nM	28 nM	2 nM	–	–	–	–
CNS(=O)(=O)Nc1nccc(Cc2cc(C(=O)NOC(C)C)c(Nc3ccc(I)cc3F)c(F)c2F)c1F [Compound A-10, 3,4-Difluoro-2-(2-fluoro-4-iodoanilino)-5-[[3-fluoro-2-(methylsulfamoylamino)pyridin-4-yl]methyl]-N-propan-2-yloxybenzamide]	5 nM	–	–	89 µL/min/mg	–	0.1 nM	0.2 nM	7 nM	–	–	–	–
